This is an account of results in article PMC4834193 (Journal of medicinal chemistry, 2015).

pEC50, pKi: −log10 of the molar value. “Also recorded” adds a separate entry of the source. A value given as a limit tells only on which side of the number the result lay.

For one data set, the system named is CYP3A. Description: CYP inhibition, human liver microsomes. The following applies: substrate midazolam. (Liver microsomes are a subcellular fraction often used to study metabolism.)
Data set [1] has as its target hERG (Homo sapiens, UniProt Q12809). Nature of the data set: hERG inhibition, CHO cells, automated patch-clamp. It is filed as cell-based. In general terms: hERG is a cardiac potassium channel; its block is linked to QT prolongation.
In data set [2] the test system is TA98, TA100, TA1535, and TA1537 strains. It is filed as cell-based. The following applies: with/without S9, 10, 50, and 100 µM.
Data set [3] is described as follows: Brain penetration study in CD1 mice. Type of data set: in vivo. The following applies: CD1, mouse, intraperitoneal, 10 mg/kg.
For another data set, the system named is C57BL/6J mice. Nature of the data set: Amphetamine-induced hyperactivity, open field activity. The following applies: 3 mg/kg AMPH; for AMPH-stimulated hyperlocomotion at 20 mg/kg: 20 mg/kg ip; for AMPH-stimulated hyperlocomotion: 10 or 20 mg/kg ip, relative to Veh–AMPH group.
Data set [4] addresses T1, human 5-HT2B (Homo sapiens, UniProt P41595). Nature of the data set: Calcium flux. Background: Calcium flux is commonly read through the fluorescence of an indicator in the cells.
Data set [5] deals with T1, human 5-HT2B. Nature of the data set: PDSP binding study, 5-HT2B.
The target in a further data set is T2, 5-HT2C receptor (Homo sapiens, UniProt P28335).
T2 sequence (P28335 33-458): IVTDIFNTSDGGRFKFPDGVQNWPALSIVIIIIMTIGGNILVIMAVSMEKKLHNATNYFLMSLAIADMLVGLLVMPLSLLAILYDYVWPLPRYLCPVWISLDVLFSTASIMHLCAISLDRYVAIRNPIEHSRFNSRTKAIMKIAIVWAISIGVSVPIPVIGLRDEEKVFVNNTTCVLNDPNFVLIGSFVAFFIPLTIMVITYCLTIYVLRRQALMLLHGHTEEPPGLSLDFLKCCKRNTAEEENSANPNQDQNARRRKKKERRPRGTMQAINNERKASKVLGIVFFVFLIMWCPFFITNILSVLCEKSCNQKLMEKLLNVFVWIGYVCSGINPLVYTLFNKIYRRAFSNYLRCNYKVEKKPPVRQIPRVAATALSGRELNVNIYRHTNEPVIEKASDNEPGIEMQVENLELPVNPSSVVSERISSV
Nature of the data set: PDSP binding study, 5-HT2C.

Another data set concerns the target human 5-HT2A (Homo sapiens, UniProt P28223). Description: Calcium flux. The following applies: from functional EC50 values.
For data set [6], the target named is T1, human 5-HT2B. The following applies: cited from earlier work.
The conditions of data set [7]: cited from earlier work.
Data set [8] has as its system hERG. The following applies: previous studies; cited from earlier work.
The next data set has as its system 5-HT2A. The following applies: cited from earlier work.
The conditions of data set [9]: clinical trials, compared to placebo group; cited from earlier work.

T1 sequence (P41595 whole entry): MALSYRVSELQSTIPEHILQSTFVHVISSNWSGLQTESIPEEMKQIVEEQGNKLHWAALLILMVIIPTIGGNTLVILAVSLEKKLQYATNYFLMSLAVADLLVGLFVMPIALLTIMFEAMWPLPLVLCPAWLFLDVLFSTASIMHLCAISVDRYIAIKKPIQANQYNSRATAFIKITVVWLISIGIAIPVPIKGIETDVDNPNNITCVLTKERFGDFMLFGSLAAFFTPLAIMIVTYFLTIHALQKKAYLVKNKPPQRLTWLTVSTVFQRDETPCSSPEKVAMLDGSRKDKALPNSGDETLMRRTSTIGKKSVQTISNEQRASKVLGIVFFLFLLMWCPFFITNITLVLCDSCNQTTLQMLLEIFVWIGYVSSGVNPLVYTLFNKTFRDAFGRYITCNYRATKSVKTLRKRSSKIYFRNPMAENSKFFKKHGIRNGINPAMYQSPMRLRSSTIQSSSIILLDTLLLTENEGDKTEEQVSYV
Sequence of hERG (Homo sapiens, UniProt Q12809) (Q12809 whole entry): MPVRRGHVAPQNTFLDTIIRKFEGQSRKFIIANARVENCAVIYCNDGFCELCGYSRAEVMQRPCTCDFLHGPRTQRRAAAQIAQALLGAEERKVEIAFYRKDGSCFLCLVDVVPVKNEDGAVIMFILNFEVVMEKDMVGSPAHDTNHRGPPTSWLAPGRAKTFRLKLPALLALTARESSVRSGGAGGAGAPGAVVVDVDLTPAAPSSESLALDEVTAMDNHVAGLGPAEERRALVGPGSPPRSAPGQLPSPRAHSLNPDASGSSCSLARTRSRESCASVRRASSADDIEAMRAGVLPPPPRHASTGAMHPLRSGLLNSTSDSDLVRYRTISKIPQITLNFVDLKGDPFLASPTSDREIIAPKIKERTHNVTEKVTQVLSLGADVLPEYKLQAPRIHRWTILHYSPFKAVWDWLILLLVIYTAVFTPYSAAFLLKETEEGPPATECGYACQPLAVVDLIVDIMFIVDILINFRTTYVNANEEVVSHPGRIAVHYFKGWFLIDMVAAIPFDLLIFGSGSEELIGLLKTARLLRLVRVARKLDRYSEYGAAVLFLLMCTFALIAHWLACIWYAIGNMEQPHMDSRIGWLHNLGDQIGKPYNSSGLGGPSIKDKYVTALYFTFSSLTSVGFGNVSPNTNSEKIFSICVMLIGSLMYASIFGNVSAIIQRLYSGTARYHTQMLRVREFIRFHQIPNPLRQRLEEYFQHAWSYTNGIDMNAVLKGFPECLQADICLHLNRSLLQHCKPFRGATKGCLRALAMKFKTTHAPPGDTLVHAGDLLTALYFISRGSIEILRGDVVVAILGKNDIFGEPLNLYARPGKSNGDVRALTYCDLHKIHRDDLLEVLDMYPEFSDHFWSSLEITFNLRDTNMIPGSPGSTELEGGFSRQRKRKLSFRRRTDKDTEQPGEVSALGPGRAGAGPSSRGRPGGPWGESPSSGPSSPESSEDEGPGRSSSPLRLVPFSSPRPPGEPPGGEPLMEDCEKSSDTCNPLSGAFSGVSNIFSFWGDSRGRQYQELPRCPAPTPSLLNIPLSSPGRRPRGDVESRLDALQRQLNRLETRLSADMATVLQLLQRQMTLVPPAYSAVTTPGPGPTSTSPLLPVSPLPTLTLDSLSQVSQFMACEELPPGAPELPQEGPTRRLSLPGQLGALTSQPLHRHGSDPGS
Sequence of human 5-HT2A (P28223 whole entry): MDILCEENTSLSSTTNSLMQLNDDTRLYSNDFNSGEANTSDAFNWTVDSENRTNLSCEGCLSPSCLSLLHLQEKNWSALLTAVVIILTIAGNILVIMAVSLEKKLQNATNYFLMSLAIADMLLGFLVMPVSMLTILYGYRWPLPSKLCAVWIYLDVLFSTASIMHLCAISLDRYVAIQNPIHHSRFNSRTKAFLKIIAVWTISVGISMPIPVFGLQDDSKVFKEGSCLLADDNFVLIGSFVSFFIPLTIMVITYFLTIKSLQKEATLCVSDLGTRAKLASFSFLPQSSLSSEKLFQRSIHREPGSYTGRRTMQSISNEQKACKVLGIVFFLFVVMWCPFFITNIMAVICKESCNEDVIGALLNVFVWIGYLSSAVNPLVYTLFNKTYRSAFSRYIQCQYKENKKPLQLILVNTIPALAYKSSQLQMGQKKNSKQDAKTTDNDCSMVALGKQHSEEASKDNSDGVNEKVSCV

On to `C=CCOc1ccc(Cl)cc1[C@H]1C[C@@H]1CN.O=C(O)C(F)(F)F` [(+)-13h], for which the “CYP inhibition at 10 µM, 3A” value in the data set on CYP3A was 27%.

As for `C=C(F)COc1ccc(Cl)cc1[C@H]1C[C@@H]1CN.Cl` [(+)-13j], the “hERG IC50” value at hERG [1] was “moderate inhibition”. The Ames fluctuation test result in [2] is recorded as “negative”. In [3] (brain), this compound displayed a concentration at 0.5 h of 17500 ng/g and a concentration at 2 h of 14700 ng/g. In data set [3] (plasma), this compound had a concentration at 0.5 h of 1440 ng/mL and a concentration at 2 h of 903 ng/mL. Besides, in the data set on C57BL/6J mice, the “AMPH-stimulated hyperlocomotion at 20 mg/kg” value is recorded as “most efficacious” and the AMPH-stimulated hyperlocomotion result is “dose dependently suppressed the hyperactivity”.

One may read the pEC50 as −log10 of the EC50, conventionally taken in molar units. The term Emax denotes the size of the effect at its maximum, as opposed to the concentration needed. `C=C(C)COc1ccc(Cl)cc1[C@H]1C[C@@H]1CN` [(+)-13k]: the pEC50 on human 5-HT2B [4] was 5.22. On human 5-HT2B [4] (read-out: Emax 5-HT2B, normalized to internal 5-HT reference), the Emax worked out at 39%.

As to `Cl.NC[C@H]1C[C@@H]1c1cc(Cl)ccc1OCCF` [(+)-13l], in [3] (brain), the concentration at 0.5 h was found to be 12800 ng/g and the concentration at 2 h worked out at 13400 ng/g. In data set [3] (plasma), this compound yielded a concentration at 0.5 h of 1200 ng/mL and a concentration at 2 h of 874 ng/mL. The AMPH-stimulated hyperlocomotion result in the data set on C57BL/6J mice is “not differentiated by dose”.

The pKi is the Ki on a negative log10 scale, so that one unit is a factor of ten. A higher pKi goes with a low Ki. Regarding `C=CCOc1ccc(F)cc1[C@H]1C[C@@H]1CN.Cl` [(+)-16b, (+)-((1S,2S)-2-(2-(Allyloxy)-5-fluorophenyl)cyclopropyl)-methanamine Hydrochloride], the pKi at human 5-HT2B [5] is 7.30 to 7.52. At 5-HT2C receptor, this compound had a pKi of 7.30 to 7.52. In the data set on C57BL/6J mice, the “AMPH-stimulated hyperlocomotion at 20 mg/kg” value was “most efficacious; also recorded: completely reversed” and the AMPH-stimulated hyperlocomotion entry is listed as “dose dependently suppressed the hyperactivity”.

Take `Cl.NC[C@H]1C[C@@H]1c1cc(F)ccc1OCCF` [(+)-16d, (+)-((1S,2S)-2-(5-Fluoro-2-(2-fluoroethoxy)phenyl)-cyclopropyl)methanamine Hydrochloride]: the pKi on human 5-HT2B [5] and at 5-HT2C receptor was 7.30 to 7.52 each time. Also, at human 5-HT2A, the “selectivity for 5-HT2C against 5-HT2A” value was > 100 fold. In the data set on C57BL/6J mice, the AMPH-stimulated hyperlocomotion entry is “not differentiated by dose”.

As to `Clc1cccc(COc2cncc(N3CCNCC3)n2)c1` [CP-809,101, 2-(3-chlorobenzyloxy)-6-(piperazinyl)-pyrazine], the “5-HT2C selectivity against 5-HT2B” value at human 5-HT2B [6] is recorded as “about 600 fold”. For the same compound, the genotoxicity result in [7] is given as “genotoxicity”.

On to `NC[C@H]1C[C@@H]1c1cc(F)ccc1OCC1CC1` [Compound 8], for which, in the data set on hERG [8], the hERG inhibition entry is given as “no hERG inhibition”.

As for `c1cc2c3c(c1)[C@H]1CCC[C@H]1N3CCNC2` [WAY-163909, (7bR,10aR)-1,2,3,4,8,9,10,10a–octahydro-7bH-cyclopenta-[b][1,4]diazepino[6,7,1-hi]indole], in the data set with 5-HT2A, the “agonist activity at 5-HT2A” value is “no agonist activity”.

Consider `C[C@H]1CNCCc2ccc(Cl)cc21` [lorcaserin], for which, in data set [9], the “incidence of cardiac valve disorders” value was “higher incidence of cardiac valve disorders”.
